In one assay the target is FXa (Homo sapiens, UniProt P00742). In words: Related protease inhibition: FXa, fluorogenic substrate. The class given is biochemical. As to conditions: fluorogenic substrate at Km, 25° C.; H1-H3 = % activity at 40 μM. The method, then:
Human serine protease enzyme Plasma Kallikrein, KLK1, FXa, Plasmin, Thrombin and Trypsin were assayed for enzymatic activity using an appropriate fluorogenic substrate at Km concentration, FXIa at fixed substrate concentration of 100 μM and various concentrations of the test compound.

The target of assay [1] is T1, Human Factor XIIa (hFXIIa) (Homo sapiens, UniProt P00748).
T1 construct: purchased Enzyme Research Laboratories
T1 sequence (P00748 373-615 limits assumed): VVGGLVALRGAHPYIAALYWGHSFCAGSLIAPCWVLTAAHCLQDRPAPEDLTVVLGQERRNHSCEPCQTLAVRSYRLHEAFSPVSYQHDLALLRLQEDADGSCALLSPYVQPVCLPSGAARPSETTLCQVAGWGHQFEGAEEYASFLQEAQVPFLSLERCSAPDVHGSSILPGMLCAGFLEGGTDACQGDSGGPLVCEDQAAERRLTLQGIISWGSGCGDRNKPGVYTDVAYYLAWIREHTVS
T1 sequence (P00748 20-372 partner limits assumed): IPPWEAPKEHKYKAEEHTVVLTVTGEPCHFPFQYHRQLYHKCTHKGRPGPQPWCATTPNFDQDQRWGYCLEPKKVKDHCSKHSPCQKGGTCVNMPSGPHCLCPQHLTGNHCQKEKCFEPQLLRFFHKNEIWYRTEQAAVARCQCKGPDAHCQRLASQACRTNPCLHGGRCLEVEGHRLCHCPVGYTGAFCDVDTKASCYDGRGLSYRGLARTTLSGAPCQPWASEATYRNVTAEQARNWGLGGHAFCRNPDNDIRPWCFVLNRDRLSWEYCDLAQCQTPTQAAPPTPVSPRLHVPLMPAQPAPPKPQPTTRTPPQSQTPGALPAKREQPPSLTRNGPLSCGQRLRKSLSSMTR
Put plainly: Determination of Human Factor XIIa (hFXIIa) inhibition, fluorogenic substrate IC50 assay. It is filed as biochemical. The following applies: fluorogenic substrate H-DPro-Phe-Arg-AFC at Km, 25° C., read-out: Human FXIIa IC50. The method, then: Determination of Human Factor XIIa (hFXIIa) inhibition
The Km for the cleavage of the substrate by hFXIIa was determined by standard transformation of the Michaelis-Menten equation, with subsequent inhibition assays performed at substrate Km concentration.

The structures appear in SMILES notation.

Sequence of FXa (P00742 235-488 limits assumed): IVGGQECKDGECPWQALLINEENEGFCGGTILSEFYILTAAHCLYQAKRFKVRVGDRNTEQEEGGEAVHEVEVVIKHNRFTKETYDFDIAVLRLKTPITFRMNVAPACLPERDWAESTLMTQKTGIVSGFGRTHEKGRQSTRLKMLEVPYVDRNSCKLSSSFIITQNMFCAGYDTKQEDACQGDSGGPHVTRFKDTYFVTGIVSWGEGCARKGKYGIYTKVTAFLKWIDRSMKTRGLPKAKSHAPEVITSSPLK
Sequence of FXa (P00742 41-179 partner limits assumed): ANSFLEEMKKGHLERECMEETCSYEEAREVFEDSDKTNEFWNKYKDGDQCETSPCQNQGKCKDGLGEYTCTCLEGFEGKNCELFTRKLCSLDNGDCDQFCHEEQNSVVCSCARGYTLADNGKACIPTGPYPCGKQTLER

As for `CN1CCc2ccc(N3CCc4c(C(=O)N[C@H](CO)c5ccccc5)nn(-c5cccc(Cl)c5)c4C3=O)cc2C1=O` [Example 1307, (S)-1-(3-chlorophenyl)-N-(2-hydroxy-1-phenylethyl)-6-(2-methyl-1-oxo-1,2,3,4-tetrahydroisoquinolin-7-yl)-7-oxo-4,5,6,7-tetrahydro-1H-pyrazolo[3,4-c]pyridine-3-carboxamide], the IC50 (in general, the midpoint of a concentration-inhibition curve) against FXa is over 40000 nM; in assay [1], 100 to 300 nM.

For `Cc1cccnc1CNC(=O)c1nn(-c2cccc(Cl)c2)c2c1CCN(c1ccc3c(c1)C(=O)N(C)CC3)C2=O` [Example 1308, 1-(3-chlorophenyl)-6-(2-methyl-1-oxo-1,2,3,4-tetrahydroisoquinolin-7-yl)-N-((3-methylpyridin-2-yl)methyl)-7-oxo-4,5,6,7-tetrahydro-1H-pyrazolo[3,4-c]pyridine-3-carboxamide], the IC50 against FXa was over 40000 nM; in assay [1], 300 to 1000 nM.

For the compound `Cc1ncccc1CNC(=O)c1nn(-c2cccc(Cl)c2)c2c1CCN(c1ccc3c(c1)C(=O)N(C)CC3)C2=O` [Example 1309, 1-(3-chlorophenyl)-6-(2-methyl-1-oxo-1,2,3,4-tetrahydroisoquinolin-7-yl)-N-((2-methylpyridin-3-yl)methyl)-7-oxo-4,5,6,7-tetrahydro-1H-pyrazolo[3,4-c]pyridine-3-carboxamide], the IC50 against FXa was over 40000 nM; in assay [1] it was 100 to 300 nM.

For the compound `Cc1ccnnc1CNC(=O)c1nn(-c2cccc(Cl)c2)c2c1CCN(c1ccc3c(c1)C(=O)N(C)CC3)C2=O` [Example 1310, 1-(3-chlorophenyl)-6-(2-methyl-1-oxo-1,2,3,4-tetrahydroisoquinolin-7-yl)-N-((4-methylpyridazin-3-yl)methyl)-7-oxo-4,5,6,7-tetrahydro-1H-pyrazolo[3,4-c]pyridine-3-carboxamide], the IC50 was in the range of 10000 to 40000 nM on FXa and 300 to 1000 nM in assay [1].

As for `CC(=O)N1CCCc2ccc(N3CCc4c(C(=O)NCc5cnccc5C)nn(-c5cccc(Cl)c5)c4C3=O)cc21` [Example 1314, 6-(1-acetyl-1,2,3,4-tetrahydroquinolin-7-yl)-1-(3-chlorophenyl)-N-((4-methylpyridin-3-yl)methyl)-7-oxo-4,5,6,7-tetrahydro-1H-pyrazolo[3,4-c]pyridine-3-carboxamide], the half-maximal inhibitory concentration (IC50) lay in the range of 10000 to 40000 nM at FXa and 100 to 300 nM in assay [1].

With `CCN1CCOc2ccc(N3CCc4c(C(=O)NCc5cc(C)n(C)n5)nn(-c5cccc(Cl)c5)c4C3=O)cc2C1=O` [Example 1317, 1-(3-chlorophenyl)-N-((1,5-dimethyl-1H-pyrazol-3-yl)methyl)-6-(4-ethyl-5-oxo-2,3,4,5-tetrahydrobenzo[f][1,4]oxazepin-7-yl)-7-oxo-4,5,6,7-tetrahydro-1H-pyrazolo[3,4-c]pyridine-3-carboxamide], the figures for the half-maximal inhibitory concentration (IC50) (at FXa; in assay [1]) were 3000 to 10000 nM and 10 to 100 nM, respectively.

Take `CCN1CCOc2ccc(N3CCc4c(C(=O)NCc5cnccc5C)nn(-c5cccc(Cl)c5)c4C3=O)cc2C1=O` [Example 1318, 1-(3-chlorophenyl)-6-(4-ethyl-5-oxo-2,3,4,5-tetrahydrobenzo[f][1,4]oxazepin-7-yl)-N-((4-methylpyridin-3-yl)methyl)-7-oxo-4,5,6,7-tetrahydro-1H-pyrazolo[3,4-c]pyridine-3-carboxamide]: the IC50 at FXa lay within 3000 to 10000 nM; in assay [1] it was 10 to 100 nM.

As to `Cc1cc(CNC(=O)c2nn(-c3cccc(Cl)c3)c3c2CCN(c2ccc4c(c2)C(=O)N(C)CCO4)C3=O)nn1C` [Example 1319, 1-(3-chlorophenyl)-N-((1,5-dimethyl-1H-pyrazol-3-yl)methyl)-6-(4-methyl-5-oxo-2,3,4,5-tetrahydrobenzo[f][1,4]oxazepin-7-yl)-7-oxo-4,5,6,7-tetrahydro-1H-pyrazolo[3,4-c]pyridine-3-carboxamide], the results for the IC50 (against FXa; in assay [1]) were 1000 to 3000 nM and 10 to 100 nM, respectively.

Regarding `Cc1cc(CNC(=O)c2nn(-c3cccc(Cl)c3)c3c2CCN(c2ccc4c(c2)C(=O)N(C(C)C)CCO4)C3=O)nn1C` [Example 1320, 1-(3-chlorophenyl)-N-((1,5-dimethyl-1H-pyrazol-3-yl)methyl)-6-(4-isopropyl-5-oxo-2,3,4,5-tetrahydrobenzo[f][1,4]oxazepin-7-yl)-7-oxo-4,5,6,7-tetrahydro-1H-pyrazolo[3,4-c]pyridine-3-carboxamide], the values for the IC50 (against FXa; in assay [1]) were over 40000 nM and 100 to 300 nM, respectively.

Consider `Cc1cc(CNC(=O)c2nn(-c3cccc(Cl)c3)c3c2CCN(c2ccc4c(c2)C(=O)N(CC(N)=O)CC4)C3=O)n[nH]1` [Example 1321, 6-(2-(2-amino-2-oxoethyl)-1-oxo-1,2,3,4-tetrahydroisoquinolin-7-yl)-1-(3-chlorophenyl)-N-((5-methyl-1H-pyrazol-3-yl)methyl)-7-oxo-4,5,6,7-tetrahydro-1H-pyrazolo[3,4-c]pyridine-3-carboxamide], for which the IC50 against FXa lay within 1000 to 3000 nM; in assay [1] it was 10 to 100 nM.

As to `COC(=O)C(NC(=O)c1nn(-c2cccc(Cl)c2)c2c1CCN(c1ccc3c(c1)C(=O)N(C)CC3)C2=O)c1cccnc1` (stereo not drawn) [Example 1325, methyl 2-(1-(3-chlorophenyl)-6-(2-methyl-1-oxo-1,2,3,4-tetrahydroisoquinolin-7-yl)-7-oxo-4,5,6,7-tetrahydro-1H-pyrazolo[3,4-c]pyridine-3-carboxamido)-2-(pyridin-3-yl)acetate], the IC50 on FXa fell in the range of 1000 to 3000 nM; in assay [1] it was 100 to 300 nM.

For `Cc1ccnc(C)c1CNC(=O)c1nn(-c2cccc(Cl)c2)c2c1CCN(c1ccc3c(c1)C(=O)N(CCO)CC3)C2=O` [Example 1326, 1-(3-chlorophenyl)-N-((2,4-dimethylpyridin-3-yl)methyl)-6-(2-(2-hydroxyethyl)-1-oxo-1,2,3,4-tetrahydroisoquinolin-7-yl)-7-oxo-4,5,6,7-tetrahydro-1H-pyrazolo[3,4-c]pyridine-3-carboxamide], the figures for the 50% inhibitory concentration (IC50) (against FXa; in assay [1]) were over 40000 nM and 100 to 300 nM, respectively.

Turning to `Cc1ccncc1C(C)NC(=O)c1nn(-c2cccc(Cl)c2)c2c1CCN(c1ccc3c(c1)C(=O)N(CCO)CC3)C2=O` (stereo not drawn) [Example 1327, 1-(3-chlorophenyl)-6-(2-(2-hydroxyethyl)-1-oxo-1,2,3,4-tetrahydroisoquinolin-7-yl)-N-(1-(4-methylpyridin-3-yl)ethyl)-7-oxo-4,5,6,7-tetrahydro-1H-pyrazolo[3,4-c]pyridine-3-carboxamide], the IC50 at FXa was over 40000 nM; in assay [1] it was 100 to 300 nM.

Regarding `CN1CCc2ccc(N3CCc4c(C(=O)NC(C(=O)O)c5cccnc5)nn(-c5cccc(Cl)c5)c4C3=O)cc2C1=O` (stereo not drawn) [Example 1328, 2-(1-(3-chlorophenyl)-6-(2-methyl-1-oxo-1,2,3,4-tetrahydroisoquinolin-7-yl)-7-oxo-4,5,6,7-tetrahydro-1H-pyrazolo[3,4-c]pyridine-3-carboxamido)-2-(pyridin-3-yl)acetic acid], the IC50 was 3000 to 10000 nM against FXa and 300 to 1000 nM in assay [1].

As for `Cc1cc(CNC(=O)c2nn(-c3cccc(Cl)c3)c3c2CCN(c2ccc4c(c2)C(=O)N(CCO)[C@H](C)CO4)C3=O)nn1C` [Example 1329, (R)-1-(3-chlorophenyl)-N-((1,5-dimethyl-1H-pyrazol-3-yl)methyl)-6-(4-(2-hydroxyethyl)-3-methyl-5-oxo-2,3,4,5-tetrahydrobenzo[f][1,4]oxazepin-7-yl)-7-oxo-4,5,6,7-tetrahydro-1H-pyrazolo[3,4-c]pyridine-3-carboxamide], the IC50 against FXa is over 4000 nM; in assay [1] it was 300 to 1000 nM.

Source of the values: patent US20260132132A1, “3A,4,5,6-TETRAHYDRO-1 H-PYRAZOLO[3,4-C]PYRIDIN-7(7AH)-ONE DERIVATIVES AS FACTOR XIIA INHIBITORS” (KALVISTA PHARMACEUTICALS LIMITED, priority 2022, published 2026).
